The source of these data is patent publication US20210198277A1, “AMINE-SUBSTITUTED ARYL OR HETEROARYL COMPOUNDS” (Epizyme, Inc., priority 2016, published 2021).

This test deals with T1, EHMT2 (Homo sapiens, UniProt Q96KQ7).
T1 construct: host or cells: MDA-MB-231
T1 sequence (Q96KQ7 1-1210): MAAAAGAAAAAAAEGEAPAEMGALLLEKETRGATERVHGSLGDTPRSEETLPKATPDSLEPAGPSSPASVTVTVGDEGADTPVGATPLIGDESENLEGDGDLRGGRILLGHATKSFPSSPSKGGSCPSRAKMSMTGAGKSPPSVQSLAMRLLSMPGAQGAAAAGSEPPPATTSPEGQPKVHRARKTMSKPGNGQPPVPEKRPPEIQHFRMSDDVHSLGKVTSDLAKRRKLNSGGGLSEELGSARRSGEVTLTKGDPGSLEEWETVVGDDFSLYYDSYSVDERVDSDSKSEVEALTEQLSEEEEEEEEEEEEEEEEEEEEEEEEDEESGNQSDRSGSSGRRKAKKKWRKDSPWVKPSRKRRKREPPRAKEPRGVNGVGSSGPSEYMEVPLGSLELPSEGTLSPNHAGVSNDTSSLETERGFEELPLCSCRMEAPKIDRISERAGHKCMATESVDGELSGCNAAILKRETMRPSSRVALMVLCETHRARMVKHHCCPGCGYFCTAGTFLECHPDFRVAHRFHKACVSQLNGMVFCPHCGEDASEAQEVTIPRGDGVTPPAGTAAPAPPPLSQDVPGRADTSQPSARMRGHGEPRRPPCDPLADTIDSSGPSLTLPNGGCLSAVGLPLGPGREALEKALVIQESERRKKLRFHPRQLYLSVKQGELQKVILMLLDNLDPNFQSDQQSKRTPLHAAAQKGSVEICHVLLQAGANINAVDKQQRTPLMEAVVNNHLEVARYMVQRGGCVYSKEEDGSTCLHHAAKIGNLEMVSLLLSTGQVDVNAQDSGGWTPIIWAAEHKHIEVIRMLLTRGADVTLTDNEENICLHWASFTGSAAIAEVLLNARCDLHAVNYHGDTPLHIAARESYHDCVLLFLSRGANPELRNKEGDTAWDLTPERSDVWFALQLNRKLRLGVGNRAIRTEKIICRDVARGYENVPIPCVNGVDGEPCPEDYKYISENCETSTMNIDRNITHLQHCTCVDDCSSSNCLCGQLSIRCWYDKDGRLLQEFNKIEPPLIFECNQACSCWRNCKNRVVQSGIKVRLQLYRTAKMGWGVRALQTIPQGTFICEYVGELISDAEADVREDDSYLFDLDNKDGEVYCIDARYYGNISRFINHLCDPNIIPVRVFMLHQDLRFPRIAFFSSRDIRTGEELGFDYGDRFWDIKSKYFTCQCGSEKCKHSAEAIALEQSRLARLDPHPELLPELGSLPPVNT
As to the kind of experiment: MDA-MB-231 H3K9me2 in-cell Western assay (EHMT2 ICW). It is filed as cell-based. The method in brief:
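Cells seeded at 3,000/well onto pre-dispensed compound; 30 min RT, then 48 h 37 °C/5% CO2. PFA fix, block, α-H3K9me2 1:800 o/n 4 °C, 800CW secondary + DRAQ5. Odyssey scan 700/800 nm; ratio → % inhibition → 4-parameter IC50.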

Setting [1] is: H3K9me2 in-cell Western, MDA-MB-231 cells, read-out: EHMT2 ICW (IC50 μM).
[2] abbreviates: Table VII, read-out: EHMT2 ICW IC50.

Read-outs that look alike come from different tables or passages of the source.

In the case of `CNc1cc(C)nc(Nc2cnc(OC)c(OCCCN3CC4CC4C3)c2)n1` (stereo not drawn) [Compound 514], under setting [1], the IC50 (in general, the concentration at which inhibition is half-maximal) lay in the range of 0.1 to 1 µM.
Same read-out and setting: for `CCc1ncc(Nc2nc(C)cc(NC)n2)cc1OCCCN1CCCC1` [Compound 515] the value was 1 to 10 µM.
For `CNc1cc(C)nc(Nc2cnc(C3CC3)c(OCCCN3CCCC3)c2)n1` [Compound 516], the IC50 under setting [1] was in the range of 1 to 10 µM.
As for `CNc1cc(C)nc(Nc2ccc(OC)c(OCC3CCCN(C4CC4)C3)c2)n1` (stereo not drawn) [Compound 517a], the half-inhibitory concentration (IC50) under setting [1] is 0.1 to 1 µM.
On the same count and under the same terms, for `CNc1cc(C)nc(Nc2ccc(OC)c(OC[C@H]3CCCN(C4CC4)C3)c2)n1` [Compound 517b] the value was 0.1 to 1 µM; for `CNc1nc(C2CCCC2)c2cc(OC)c(OCCCN3CCCC3)cc2n1` [Compound 518, 4-cyclopentyl-6-methoxy-N-methyl-7-(3-(pyrrolidin-1-yl)propoxy)quinazolin-2-amine], 1 to 10 µM.
`CNc1nc(C2CCN(C(C)=O)CC2)c2cc(OC)c(OCCCN3CCCC3)cc2n1` [Compound 519]: the IC50 under setting [1] was above 10 µM.
Consider `CNc1nc(C2CCNCC2)c2cc(OC)c(OCCCN3CCCC3)cc2n1` [Compound 520], for which the IC50 under setting [1] was in the range of 1 to 10 µM.
For `CNc1nc(C2CCOCC2)c2cc(OC)c(OCCCN3CCCC3)cc2n1` [Compound 521], the IC50 under setting [1] lay in the range of 1 to 10 µM.
The same measure, in the same setting: the same measure for `CNc1nc(C2=CCOCC2)c2cc(OC)c(OCCCN3CCCC3)cc2n1` [Compound 522]: 1 to 10 µM; for `CNc1nc(C2CCCCC2)c2cc(OC)c(OCCCN3CCCC3)cc2n1` [Compound 523, 4-cyclohexyl-6-methoxy-N-methyl-7-(3-(pyrrolidin-1-yl)propoxy)quinazolin-2-amine]: 1 to 10 µM.
As to `CNc1cc(C2CCOCC2)c2cc(OC)c(OCCCN3CCCC3)cc2n1` [Compound 524, 6-methoxy-N-methyl-4-(oxan-4-yl)-7-[3-(pyrrolidin-1-yl)propoxy]quinolin-2-amine], the IC50 under setting [1] was below 0.1 µM.
Same read-out and setting: for `CNc1nc(C2CCN(C(C)C)CC2)c2cc(OC)c(OC[C@@H]3CCN(C4CC4)C3)cc2n1` [Compound 526] the value was 0.1 to 1 µM; for `COc1cc2c(C3CCN(C)CC3)nc(N3CCCC3)nc2cc1OCCCN1CCCC1` [Compound 527], 0.1 to 1 µM.
On the same count and under the same terms, the same measure for `COc1cc2c(C3CCN(C)CC3)nc(N3CCC(F)(F)CC3)nc2cc1OCCCN1CCCC1` [Compound 528]: 1 to 10 µM; for `COc1cc2c(C3CCN(C)CC3)nc(NC3CCCC3)nc2cc1OCCCN1CCCC1` [Compound 529]: 0.1 to 1 µM.
`CNc1nc(C2CCN(C(C)C)CC2)c2cc(OC)c(OCCCN3CCCC3)cc2n1` [Compound 530]: the concentration for half-maximal inhibition (IC50) under setting [1] was in the range of 1 to 10 µM.
In the case of `CNc1nc(C2CCN(C)CC2)c2cc(OC)c(OCCCN3CC4CC4C3)cc2n1` (stereo not drawn) [Compound 532], under setting [1], the IC50 lay in the range of 0.1 to 1 µM.
`CNc1nc(C2CCN(CCO)CC2)c2cc(OC)c(OCCCN3CCCC3)cc2n1` [Compound 533]: the IC50 under setting [1] is 0.1 to 1 µM.
Take `CNc1nc(C2CC(C)(C)NC(C)(C)C2)c2cc(OC)c(OCCCN3CCCC3)cc2n1` [Compound 534]: the IC50 under setting [1] was above 10 µM.
The same measure, in the same setting: for `CNc1cc(C2CCN(C)CC2)c2cc(OC)c(OCCCN3CCCC3)cc2n1` [Compound 535] the value was below 0.1 µM; for `COc1cc2c(C3CCN(C)CC3)cc(C)nc2cc1OCCCN1CCCC1` [Compound 536], 0.1 to 1 µM.
The same measure, in the same setting: the same measure for `CCCCNc1nccc(NC)n1` [Compound 543, N^2-butyl-N^4-methylpyrimidine-2,4-diamine]: above 10 µM.
With `CNc1cc(C)nc(Nc2ccc(OC)c(OC[C@@H](O)CN3CCCC3)c2)n1` [Compound 1044], the IC50 under setting [2] lay in the range of 0.1 to 1 µM.
Same read-out and setting: the same measure for `CNc1cc(C)nc(Nc2ccc(OC)c(OC[C@H](O)CN3CCCC3)c2)n1` [Compound 1045]: 0.1 to 1 µM; for `CNc1ccnc(Nc2ccc(OC)c(OC[C@@H](O)CN3CCC3)c2)n1` [Compound 1046]: 1 to 10 µM; for `CNc1cc(C2CCOCC2)c2cc(OC)c(OC[C@H](O)CN3CCC3)cc2n1` [Compound 1108]: 0.1 to 1 µM.
As to `CNc1cc(C)nc(Nc2ccc(OC)c(CNCCNC3CCC3)c2)n1` [Compound 1109], under setting [2], the IC50 was in the range of 1 to 10 µM.
For `CNc1cc(C)nc(Nc2cnc(OC)c(CNCCN3CCC3)c2)n1` [Compound 1110], the IC50 under setting [2] fell in the range of 0.1 to 1 µM.
The same measure, in the same setting: for `CNc1cc(C2CCOCC2)c2cc(OC)c(CNCCN3CCCC3)cc2n1` [Compound 1111] the value was 0.1 to 1 µM.
`CNc1cc(C)nc(Nc2ccc(OC)c(OC[C@H](O)CN(C)C)c2)n1` [Compound 1112]: under setting [2], the IC50 was in the range of 1 to 10 µM.
On the same count and under the same terms, the same measure for `CCN(C)C[C@@H](O)COc1cc(Nc2nc(C)cc(NC)n2)ccc1OC` [Compound 1113]: 1 to 10 µM; for `CNc1cc(C)nc(Nc2ccc(C)c(C(=O)NCc3ccon3)c2)n1` [Compound 1114]: above 10 µM.
